Test results published in PMC6167049, “Structural and catalytic properties of the peroxygenase P450 enzyme CYP152K6 from Bacillus methanolicus” (Journal of Inorganic Biochemistry, 2018).

How the values were obtained:
CYP152K6 [1] = target: T1, CYP152K6 (Bacillus methanolicus, UniProt I3DZK9); assay: X-ray crystal structure, […] Å; assay type: binding; details: co-purified from E. coli, bound above heme at Arg244; pH 8.0 protein buffer
T1 construct: gene cypC; codon-optimised synthetic gene in pET24b, E. coli BL21 (DE3); N-terminal 6xHis-tag cut with TEV protease; monomer; 417 residues in crystal model; co-purifies with tetradecanoic acid
T1 sequence (I3DZK9 whole entry): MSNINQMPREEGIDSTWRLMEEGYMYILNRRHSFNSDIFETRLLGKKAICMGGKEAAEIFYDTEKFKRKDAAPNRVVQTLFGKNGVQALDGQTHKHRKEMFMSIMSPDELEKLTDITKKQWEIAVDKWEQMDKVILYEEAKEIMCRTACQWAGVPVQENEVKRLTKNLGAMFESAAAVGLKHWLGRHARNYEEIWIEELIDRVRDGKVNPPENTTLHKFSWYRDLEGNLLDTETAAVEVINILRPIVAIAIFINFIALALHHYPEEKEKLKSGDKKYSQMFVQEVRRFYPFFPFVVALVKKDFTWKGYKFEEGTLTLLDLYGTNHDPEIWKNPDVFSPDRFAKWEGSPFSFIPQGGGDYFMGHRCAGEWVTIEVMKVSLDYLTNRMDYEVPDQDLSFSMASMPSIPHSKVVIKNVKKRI

CYP152K6 [2] = target: T1, CYP152K6; assay: X-band EPR and UV-visible spectroscopy; assay type: binding; details: ferric enzyme; EPR at 10 K, 1 and 2 mM ligand; UV-visible with 400 μM ligand, pH 8.0, 25 °C; H2O2-driven turnover also tested

Q: With `CCCCCCCCCCCCCC(=O)O` [tetradecanoic acid] as the molecule, how does the “X-ray crystal structure, 1.3 Å” value (CYP152K6 [1]) read?
A: Its value is “The final model of CYP152K6 in complex with tetradecanoic acid has been deposited”.

Q: With `CCCCCCCCCCCC(=O)O` [dodecanoic acid] as the molecule, how does the “X-band EPR and UV-visible spectroscopy” value (CYP152K6 [2]) read?
A: Its value is “the addition of dodecanoic acid alters the equilibria between the three major components”.
